Source: the METLIN SMRT retention time set (Domingo-Almenara et al. 2019)

Assay: gradient 5% acetonitrile 3 min, to 50% in 2 min, to 85% in 15 min, held 3 min, 100 µL/min
Settings: column: Zorbax Extend-C18 2.1 x 50 mm; eluents: water / acetonitrile, 0.1% formic acid
Outline: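 Pure standards were run in mixtures of ~100 molecules by HPLC coupled to a quadrupole time-of-flight mass spectrometer. The column was a Zorbax Extend-C18 (2.1 × 50 mm, 1.8 μm) at 100 μL/min, with water and acetonitrile each containing 0.1% formic acid, in positive and negative ionization mode. Dead and dwell volumes were 40 μL and 900 μL. Retention time was taken from computationally picked adduct peaks, each manually inspected, with data collected over 3 months.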

Compound | RP-LC retention time [s]
COc1ccc(CC(=O)N2CCC3(CC2)NC(=O)c2cccc(Cl)c2N3)cc1 | 761
O=C(Cc1ccc(Br)cc1)N1CCN(c2cc(-c3ccc(Cl)cc3)[nH]n2)CC1 | 953
CCCn1cc(C(=O)Nc2ccc(OC)c(OC)c2)c(=O)c2ccc(C)nc21 | 1020
Cc1ccc(C)c(CN2CCn3c(nn(C)c3=O)C2)c1 | 747
COc1ccc(-c2noc(Cc3nnc(-c4ccc(Cl)cc4)o3)n2)cc1F | 1060
O=C(NC1CC1)C1CCCN(c2cnc3nccnc3c2)C1 (configuration not stated) | 592
CN1C(=O)c2cc(C(=O)NCCN3CCCC3)nn2CC1(C)C(=O)NCc1ccc(F)cc1 (configuration not stated) | 580
COc1ccc(OC)c(S(=O)(=O)N2CCCC(C(=O)N3CCOCC3)C2)c1 (configuration not stated) | 664
Cc1ccc(NC(=O)c2cc(C(C)C)n(C3CCS(=O)(=O)C3)n2)cc1 (configuration not stated) | 901
CC(=O)Oc1ccc(Nc2cc(C)nc3nc(-c4cccnc4)nn23)cc1 | 688
CNC(=O)C1CCN(C(=O)Nc2ccc(NC(=O)Nc3ccc(OC)cc3)cc2)CC1 | 638
Cc1ccnc(Nc2nc(-c3ccccc3C)cs2)c1 | 821
O=C(CSc1cc(-c2ccc(F)cc2)ncn1)NCc1ccc2c(c1)OCO2 | 825
CC(CCNC(=O)Cn1c2ccccc2c2cnn(C)c(=O)c21)N1CCCC1 (configuration not stated) | 595
CC(=O)Nc1ccc(OCC(=O)NCc2cc(F)cc(F)c2)nc1 | 672
O=C(NCCc1ccccc1)C1CCCN(C(=O)Cc2cccc3ccccc23)C1 (configuration not stated) | 906
CCOc1ccccc1N1CCN(Cc2cc(C)[nH]n2)CC1 | 612
Cc1nc(-c2ccc3c(c2)n(CC(=O)NC2CCC(C)CC2)c(=O)n3C(C)C)no1 (configuration not stated) | 897
Cc1noc(C)c1CNC(=O)c1ccc(F)cc1Cl | 731
COc1ccc(C(=O)N2CCC(c3nc4cccnc4n3C)C2)cc1F (configuration not stated) | 651
Cc1ncsc1CN1CCn2c(nnc2[C@@H]2C[C@@H](O)CN2Cc2cccnc2)C1 | 544
CCN1C(=O)C2CCCN2C(=O)c2ccccc21 (configuration not stated) | 639
O=C(NCCN1CCc2ccccc2C1)C1CCN(c2nnc3ccccn23)CC1 | 563

Compound | RP-LC retention time [s]
O=C(NCc1ccc(N2CCOCC2)cc1)c1cn2ccccc2n1 | 591
Cc1oc(-c2[nH]ncc2C(=O)N(C)C)cc1S(=O)(=O)Nc1ccc(C(C)C)cc1 | 770
CCOCCCNC(=S)Nc1ccc2nc(N3CCN(CC)CC3)cc(C)c2c1 | 578
CCOc1ccc(C2Cn3nnc(-c4nc(-c5ccccc5C)no4)c3CO2)cc1 (configuration not stated) | 1270
CCOC(=O)CNC(=O)Nc1ccc2nc(N3CCOCC3)cc(C)c2c1 | 582
O=C(NC1CCN(c2cc(-c3ccc(Cl)cc3)[nH]n2)C1)c1ccc2[nH]ccc2c1 (configuration not stated) | 742
CCc1ccc(N2CC(c3nc(-c4ccc(OC)cc4OC)no3)CC2=O)cc1 (configuration not stated) | 998
CCCCS(=O)(=O)N1CCCC(Cn2c(C3CC3)nc3cccnc32)C1 (configuration not stated) | 698
CCn1c(=O)sc2cc(S(=O)(=O)N3CCC(C(=O)NCc4cccs4)CC3)ccc21 | 832
CCOC(=O)C1=C(CN2CCC(N3CCCCC3)CC2)NC(=O)NC1c1ccc(Cl)cc1 (configuration not stated) | 599
COc1ccc(NC(=O)NCCn2c(C)nc3ccccc32)c(OC)c1 | 604
Cc1nc(-c2ccccc2)sc1C(=O)Nc1nc(-c2ccc(F)cc2)c(C)s1 | 1280
O=S(=O)(c1cccc(-c2nnc(SC/C=C/c3ccccc3)o2)c1)N1CCOCC1 | 980
O=C([C@@H]1C[C@H](F)CN1C(=O)c1ccsc1)N1CCCCC1 | 653
COC(=O)c1ccc(OC)c(Cn2cnc3c(-c4ccc(C)cc4)csc3c2=O)c1 | 1070
CCc1nc(-c2cc(S(=O)(=O)N3CCC(C(=O)NC4CC4)CC3)c(C)s2)no1 | 744
Cc1ccc2ncn(C3CCN(S(=O)(=O)c4ccc(F)cc4F)CC3)c(=O)c2c1 | 904
CN(C)c1ccc(CNC(=O)CCCn2c(=O)c3cccn3c3ccc(F)cc32)cc1 | 658
NS(=O)(=O)c1cccnc1Nc1ccc(Cl)cc1 | 863
Cc1sc2ccn(C)c(=O)c2c1C(=O)NC(C)c1ccc(F)cc1 (configuration not stated) | 779
CSc1ccc(-c2nc3ccc(Br)cn3c2Nc2ccc(C)cc2)cc1 | 986
CC(C)OCCCNC(=O)C1CCCN(c2nc3ccccc3n(Cc3ccccc3)c2=O)C1 (configuration not stated) | 1070
O=C(NC1CCCC1)C1CCN(S(=O)(=O)c2cc(C(=O)N3CCOCC3)cs2)CC1 | 682

Compound | RP-LC retention time [s]
CCNc1cc(N2CCCC(CCC(=O)NC3CCCC3)C2)ncn1 (configuration not stated) | 646
O=C(NC1CC(=O)N(C2CC2)C1)C1CC=CCC1 (configuration not stated) | 591
COc1ccc(C(=O)Nc2cnn(C)c(=O)c2N2CCOCC2)cc1Cl | 784
COc1ccc(S(=O)(=O)N(C)CC2(C)CCOCC2)cc1Cl | 925
Cc1nc(-c2ccccc2)sc1C(=O)Nc1nc(-c2ccc(F)cc2)cs1 | 1250
Nc1c(C(=O)Nc2nc(-c3ccccc3)cs2)sc2nc3c(cc12)CCCCC3 | 1170
CN1C(=O)CCc2cc(NC(=O)c3ccncc3)ccc21 | 579
COC(=O)c1cccc(NC(=O)CCc2cccc3[nH]ccc23)c1 | 847
O=C(NCc1ccco1)c1ccc(-n2nnc3cccnc32)cc1Cl | 793
COCCN1C(=O)[C@H]2CN(Cc3cccc(Br)c3)C[C@H]2C1=O | 656
COCc1nc2cccnc2n1C1CCN(C(=O)Nc2ccc3c(c2)OCO3)CC1 | 658
CCCN(C)CC1(O)CCC2(CCN(C(=O)c3ccsc3)CC2)CC1 | 590
CCOC(=O)COc1cc(-c2ccc(F)cc2)nc2ccc(NC(=O)C3CCC3)cc12 | 810
O=C(CCC(=O)N1CC2CCCN2c2ccccc21)N1CCN(Cc2ccc3c(c2)OCO3)CC1 (configuration not stated) | 692
CC1=C(c2ccc(C(C)C)cc2)S(=O)(=O)N=C1N1CCC(C(=O)N2CCOCC2)CC1 | 779
O=C(C1CCN(c2ccc3nncn3n2)CC1)N1CCN(c2ccccn2)CC1 | 560
O=C(c1ccccn1)N1CCN(c2cc(-c3cccs3)[nH]n2)CC1 | 648
CCOc1ccc(-n2ccnc(NC(=O)Nc3ccccc3)c2=O)cc1 | 981
CCc1nn2c(CNC(=O)c3cc(Cl)ccc3OC)c(C)nc2s1 | 659
COc1cccc(-n2c(=O)c3sccc3n(Cc3nc(-c4cccc(C)c4)no3)c2=O)c1 | 978
Cc1ccc2[nH]cc(CCNC(=O)C3CCN(c4ccc(Cl)cc4)C3=O)c2c1 (configuration not stated) | 987
